Reference: patent US20240158392A1 (Janssen Biotech, Inc., priority 2021, published 2024)

Legend:
SIK2 [1] = target: T1, SIK2 (Homo sapiens, UniProt Q9H0K1); test: SIK2 Enzymatic Assay Version 1 (ADP Glo); format: biochemical
Method in brief: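 Kinase activity read as ADP production by ADP-Glo luminescence, all steps at room temperature. Compound and SIK2 (0.6 nM, a 2× concentration) were preincubated 30 min; ATP-only wells lacking peptide were the negative control; depletion 40 min, detection ≥30 min.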

SIK2 [2] = target: T1, SIK2; test: SIK2 Enzymatic Assay High Version 2 (High ATP); format: biochemical
Method in brief: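 At room temperature, enzyme (6 nM, 2× final) was preincubated with compound for 30 min, then 6 mM ATP and 400 μM HDAC5tide (both 2× final) were added for 2 h. ADP formed was measured by ADP-Glo Max (2 h reagent, 1 h detection) using luminescence.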

[3] = enzyme 0.6 nM, 160 μM ATP and 140 μM HDAC5tide (each 2× final concentration), 30 minutes pre-incubation, 4 hours, ADPGlo luminescence, read-out: SIK2 ADP Glo IC50 (μM) (Test Example 1)

T1 sequence (Q9H0K1 whole entry, species assumed): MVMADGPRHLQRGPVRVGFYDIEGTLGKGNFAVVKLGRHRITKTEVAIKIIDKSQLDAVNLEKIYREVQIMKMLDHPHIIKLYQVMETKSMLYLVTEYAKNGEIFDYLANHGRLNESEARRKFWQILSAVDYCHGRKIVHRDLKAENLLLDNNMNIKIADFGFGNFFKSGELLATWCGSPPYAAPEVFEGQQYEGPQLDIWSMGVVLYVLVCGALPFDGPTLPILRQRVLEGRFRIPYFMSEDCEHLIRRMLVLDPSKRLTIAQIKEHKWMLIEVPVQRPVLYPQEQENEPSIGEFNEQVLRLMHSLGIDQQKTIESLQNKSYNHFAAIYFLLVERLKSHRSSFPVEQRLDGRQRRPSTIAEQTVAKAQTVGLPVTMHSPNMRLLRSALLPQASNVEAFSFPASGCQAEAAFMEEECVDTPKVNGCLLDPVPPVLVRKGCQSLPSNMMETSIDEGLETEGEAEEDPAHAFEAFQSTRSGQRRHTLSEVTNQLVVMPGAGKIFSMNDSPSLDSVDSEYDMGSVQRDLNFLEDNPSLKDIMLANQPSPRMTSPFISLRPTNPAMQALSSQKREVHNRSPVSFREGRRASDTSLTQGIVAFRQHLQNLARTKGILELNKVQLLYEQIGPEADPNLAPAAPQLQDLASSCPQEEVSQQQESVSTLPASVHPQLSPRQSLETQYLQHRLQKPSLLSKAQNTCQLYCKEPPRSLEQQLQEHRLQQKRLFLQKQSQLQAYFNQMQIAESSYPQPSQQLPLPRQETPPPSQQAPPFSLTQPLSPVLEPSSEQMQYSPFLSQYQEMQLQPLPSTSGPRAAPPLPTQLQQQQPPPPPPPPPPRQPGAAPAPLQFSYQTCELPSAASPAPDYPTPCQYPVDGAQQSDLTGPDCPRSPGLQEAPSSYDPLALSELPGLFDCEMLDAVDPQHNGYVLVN

Compound | IC50 (SIK2 [1]; [3]) | IC50 (SIK2 [2]) | IC50 (SIK2 [1])
N#Cc1cc(-c2ccn3nc(NC(=O)C4CC4)cc3c2)c(O[C@@H]2C[C@H]3C[C@@H]2CN3)cn1 [Example 24, N-[5-[5-[[(1R,4R,5R)-2-azabicyclo[2.2.1]heptan-5-yl]oxy]-2-cyano-4-pyridyl]pyrazolo[1,5-a]pyridin-2-yl]cyclopropanecarboxamide] | 0.00594 µM | 145 nM | –
N#Cc1cc(-c2ccn3nc(NC(=O)C4CC4)cc3c2)c(OCc2ccccc2)cn1 [Example 753, N-[5-(5-benzyloxy-2-cyano-4-pyridyl)pyrazolo[1,5-a]pyridin-2-yl]cyclopropanecarboxamide] | – | 483 nM | 0.00298 µM
N#Cc1ccc(OC[C@H]2CNCCO2)c(-c2ccn3nc(NC(=O)C4CC4)cc3c2)c1 [Example 101, N-[5-[5-cyano-2-[[(2R)-morpholin-2-yl]methoxy]phenyl]pyrazolo[1,5-a]pyridin-2-yl]cyclopropanecarboxamide] | 0.00263 µM | 21.9 nM | –
N#Cc1cc(-c2ccn3nc(NC(=O)C4CC4)cc3c2)c(O[C@H]2CCN(CC(F)(F)F)C2)cn1 [Example 5, N-[5-[2-cyano-5-[(3S)-1-(2,2,2-trifluoroethyl)pyrrolidin-3-yl]oxy-4-pyridyl]pyrazolo[1,5-a]pyridin-2-yl]cyclopropanecarboxamide] | 0.000381 µM | 7.74 nM | –
CC(C)(O)CNc1cnc(C#N)cc1-c1ccn2nc(NC(=O)C3CC3)cc2c1 [Example 81, N-[5-[2-cyano-5-[(2-hydroxy-2-methyl-propyl)amino]-4-pyridyl]pyrazolo[1,5-a]pyridin-2-yl]cyclopropanecarboxamide] | 0.0154 µM | 278 nM | –
CN1CCC(COc2cnc(C#N)cc2-c2ccn3nc(NC(=O)C4CC4)cc3c2)CC1 [Example 51, N-[5-[2-cyano-5-[(1-methyl-4-piperidyl)methoxy]-4-pyridyl]pyrazolo[1,5-a]pyridin-2-yl]cyclopropanecarboxamide] | 0.00509 µM | 116 nM | –
C[C@H](O)COc1cnc(C#N)cc1-c1ccn2nc(NC(=O)C3CC3)cc2c1 [Example 63, N-[5-[2-cyano-5-[(2S)-2-hydroxypropoxy]-4-pyridyl]pyrazolo[1,5-a]pyridin-2-yl]cyclopropanecarboxamide] | 0.00426 µM | 78.6 nM | –
CC1(C)CNC[C@H](COc2ccc(C#N)cc2-c2ccn3nc(NC(=O)C4CC4)cc3c2)O1 [Example 102, N-[5-[5-cyano-2-[[(2R)-6,6-dimethylmorpholin-2-yl]methoxy]phenyl]pyrazolo[1,5-a]pyridin-2-yl]cyclopropanecarboxamide] | 0.000413 µM | < 0.838 nM | –
CN1CC[C@@H](COc2cnc(C#N)cc2-c2ccn3nc(NC(=O)C4CC4)cc3c2)C1 [Example 1, N-[5-[2-Cyano-5-[[(3R)-1-methylpyrrolidin-3-yl]methoxy]-4-pyridyl]pyrazolo[1,5-a]pyridin-2-yl]cyclopropanecarboxamide] | 0.00226 µM | 59.1 nM | –
N#Cc1cc(-c2ccn3nc(NC(=O)C4CC4)cc3c2)c(OC2CC2)cn1 [Example 46, N-[5-[2-Cyano-5-(cyclopropoxy)-4-pyridyl]pyrazolo[1,5-a]pyridin-2-yl]cyclopropanecarboxamide] | 0.0141 µM | 185 nM | –
Cc1cc(-c2ccn3nc(NC(=O)C4CC4)cc3c2)c(OC[C@H]2CNCCO2)cn1 [Example 166, N-[5-[2-methyl-5-[[(2R)-morpholin-2-yl]methoxy]-4-pyridyl]pyrazolo[1,5-a]pyridin-2-yl]cyclopropanecarboxamide] | 0.00101 µM | 15.9 nM | –
N#Cc1cc(-c2ccn3nc(NC(=O)C4CC4)cc3c2)c(OC[C@H]2CCCNC2)cn1 [Example 593, N-[5-[2-cyano-5-[[(3S)-3-piperidyl]methoxy]-4-pyridyl]pyrazolo[1,5-a]pyridin-2-yl]cyclopropanecarboxamide] | 0.00242 µM | 30.7 nM | –
N#Cc1cc(-c2ccn3nc(NC(=O)C4CC4)cc3c2)c(OCc2ccccn2)cn1 [Example 48, N-(5-(2-Cyano-5-(pyridin-2-ylmethoxy)pyridin-4-yl)pyrazolo[1,5-a]pyridin-2-yl)cyclopropanecarboxamide] | 0.0109 µM | 118 nM | –
N#Cc1cc(-c2ccn3nc(NC(=O)C4CC4)cc3c2)c(OC[C@H]2C[C@@H](O)C2)cn1 [Example 68, N-[5-[2-cyano-5-[(3-hydroxycyclobutyl)methoxy]-4-pyridyl]pyrazolo[1,5-a]pyridin-2-yl]cyclopropanecarboxamide] | 0.000666 µM | 24 nM | –
N#Cc1cc(-c2ccn3nc(NC(=O)C4CC4)cc3c2)c(OC2CN(CC(F)(F)F)C2)cn1 [Example 590, N-[5-[2-cyano-5-[1-(2,2,2-trifluoroethyl)azetidin-3-yl]oxy-4-pyridyl]pyrazolo[1,5-a]pyridin-2-yl]cyclopropanecarboxamide] | 0.00124 µM | 19.5 nM | –
N#Cc1ccc(OC[C@@H]2CNCCO2)c(-c2ccn3nc(NC(=O)C4CC4)cc3c2)c1 [Example 103, N-[5-[5-cyano-2-[[(2S)-morpholin-2-yl]methoxy]phenyl]pyrazolo[1,5-a]pyridin-2-yl]cyclopropanecarboxamide] | 0.00362 µM | 34.5 nM | –
N#Cc1cc(-c2ccn3nc(NC(=O)C4CC4)cc3c2)c(O[C@H]2CC[C@@H](O)CC2)cn1 [Example 86, N-(5-(2-cyano-5-(((1s,4s)-4-hydroxycyclohexyl)oxy)pyridin-4-yl)pyrazolo[1,5-a]pyridin-2-yl)cyclopropanecarboxamide] | 0.000204 µM | 2.76 nM | –
Cc1cc(-c2ccn3nc(Nc4ccn(C)n4)cc3c2)c(O[C@H]2CC[C@H](O)CC2)cn1 [Example 181, trans-4-[[6-methyl-4-[2-[(1-methylpyrazol-3-yl)amino]pyrazolo[1,5-a]pyridin-5-yl]-3-pyridyl]oxy]cyclohexanol] | 0.00236 µM | 32 nM | –
N#Cc1cc(-c2ccn3nc(NC(=O)C4CC4)cc3c2)c(OCC2(O)CCCC2)cn1 [Example 42, N-[5-[2-cyano-5-[(1-hydroxycyclopentyl)methoxy]-4-pyridyl]pyrazolo[1,5-a]pyridin-2-yl]cyclopropanecarboxamide] | 0.00169 µM | 45.5 nM | –
CC#Cc1cc(-c2ccn3nc(NC(=O)C4CC4)cc3c2)c(O[C@H]2CC[C@H](O)CC2)cn1 [Example 185, trans-N-[5-[5-(4-hydroxycyclohexoxy)-2-prop-1-ynyl-4-pyridyl]pyrazolo[1,5-a]pyridin-2-yl]cyclopropanecarboxamide] | 0.000366 µM | < 0.838 nM | –
O=C(Nc1cc2cc(-c3cc(OC(F)F)ncc3OC[C@@H]3CNCCO3)ccn2n1)C1CC1 [Example 503, N-[5-[2-(difluoromethoxy)-5-[[(2S)-morpholin-2-yl]methoxy]-4-pyridyl]pyrazolo[1,5-a]pyridin-2-yl]cyclopropanecarboxamide] | 0.0038 µM | 68.2 nM | –
Cc1cc(-c2ccn3nc(NC(=O)C4CC4)cc3c2)c(OCC2(N)CCCC2)cn1 [Example 155, N-[5-[5-[(1-aminocyclopentyl)methoxy]-2-methyl-4-pyridyl]pyrazolo[1,5-a]pyridin-2-yl]cyclopropanecarboxamide] | 0.00108 µM | 15.6 nM | –
